Laboratory results reported in patent US10004761B2, “Malodor neutralizing composition” (priority 2016, dated 2018).

Tested on: chondroitinase ABC
Assay: HA gelation consistency (Method III) in the presence of Chondroitinase ABC
Type: biochemical, Proteus vulgaris
Conditions: Table 4: NAC 400 mg dry powder (20% final), HA 2 cc of 1%, Chondroitinase ABC 50 μL, 37° C.; cell wraps: Viscous liquid
Procedure: Method III (Viscosity of HA): HA at low concentrations (e.g., 1%) in aqueous solution forms a viscous colloidal hydrogel solution, which yields semi-solid gel particles at room temperature and a solid gel at 4° C.
HA degradation was evaluated using Method III, as described hereinabove.
HA state of gelation was studied in the presence of NAC and various HA-degrading enzymes, using the following Stock solutions:
The tested enzyme (50 μL) was placed in a tube, NAC (50 μL of the Stock solution, final concentration of about 3.3%) was added and the mixture was incubated for 2 hours at room temperature (23° C.). Then, 2 ml of HA 1% were added to each tube and tubes were further incubated at room temperature for additional 24 hours.
In a second set of experiments, NAC (50 μL of the Stock solution) was added to a tube containing 2 ml of HA 1%; and the tubes were incubated for 2 hours at room temperature. Then, the HA-degrading enzyme was added and tubes were incubated at room temperature for additional 24 hours. In control tubes 9 and 10 (containing only HA), 50 μL of water were added to achieve the same volume as the other tested tubes.
In another set of experiments, the effect of NAC powder, (at a final concentration of 20%), on HA gelation in the presence of Hyase or Chondroitinase ABC was tested. […]

## CC(=O)N[C@@H](CS)C(=O)O [NAC, N-acetyl L-cysteine]
  Consistency: Viscous
